The results in this text go back to patent publication US20050063998A1, “Oral solution containing galantamine and a sweetening agent” (priority 1999, published 2005).

Molecules are shown by their SMILES. “Also recorded” adds a separate entry of the source. Where a name gives a salt, the structure may show the parent alone.

The data set in a line: Stability of a galantamine hydrobromide aqueous solution as a function of pH (HPLC, degradation products). Format: physicochemical. The conditions noted are these: 10 mg/ml aqueous solution; neutral (water pH 5.2); 80° C.; storage 24 hours. How it is done: (c) Stability of a Galantamine Hydrobromide Aqueous Solution as a Function of pH
A galantamine hydrobromide 10 mg/ml aqueous solution was stored in acid, neutral and alkaline conditions at 80° C. for 1 up to 24 hours. After storage, the solutions were analyzed using HPLC for the presence of degradation products.

Consider `COc1ccc2c3c1O[C@H]1C[C@@H](O)C=C[C@@]31CCN(C)C2` [Galantamine hydrobromide, [4aS-(4aα, 6β, 8aR*)]-4a, 5,9,10,11,12-hexa-hydro-3-methoxy-11-methyl-6H-benzofuro[3a,3,2-ef][2]benzazepin-6-ol], for which the Degradation compounds result is on record as “remained stable; also recorded: No degradation detected”.
